Experimental data: patent US20230390287A1, “MODULATORS OF PD-L1/PD-1 INTERACTION AND USES THEREOF” (Ramot at Tel-Aviv University Ltd., priority 2021, published 2023)

What was measured:
PD-1/PD-L1 interaction = PD-1/PD-L1 interaction (Homo sapiens (Human), UniProt Q9NZQ7); assay: HTRF PD-1/PD-L1 binding assay; assay type: biochemical; set-up: key to HTF assay (100 μM): +: positive compounds using 100 μM on HTRF; settings: for HTF assay (100 μM): compounds at 100 μM, hits defined as at least 50% inhibition of PD-1/PD-L1 interaction; for dose-response effect in HTRF: 8 doses starting from 100 μM
Sequence of PD-1/PD-L1 interaction (Q9NZQ7 19-238): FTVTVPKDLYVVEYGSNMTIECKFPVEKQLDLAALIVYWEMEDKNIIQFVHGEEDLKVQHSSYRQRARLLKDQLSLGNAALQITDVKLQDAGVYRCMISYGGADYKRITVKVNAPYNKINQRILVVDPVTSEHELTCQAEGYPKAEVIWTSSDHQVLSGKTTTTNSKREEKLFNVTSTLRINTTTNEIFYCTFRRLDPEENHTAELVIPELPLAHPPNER

[1] = Compound stability (no method given); assay type: physicochemical
recombinant human PD-L1 = recombinant human PD-L1 (Homo sapiens (Human), UniProt Q9NZQ7); assay: Differential scanning fluorimetry (DSF) thermal denaturation; assay type: binding; settings: for thermal shift / stabilization of PD-L1: 100 μM compound, 1% DMSO
Sequence of recombinant human PD-L1 (Q9NZQ7 19-238): as above
Description: DSF was performed in a C1000 Touch thermal cycler equipped with a CFX96 optical reaction module (Bio Rad). For all fluorescence measurements, samples contained recombinant human PD-L1 (ThermoFisher) at 500 μg/ml in phosphate buffered saline (PBS), pH 7.4, 5% (m/v) Mannitol, 5% (m/v) Trehalose, 0.02% (v/v) Tween® 80, 2.5-fold SYPRO® Orange, 1% (v/v) DMSO (Sigma-Aldrich) and 100 μM of each compound. The PCR plate was sealed with Optical-Quality Sealing Tape (Bio-Rad) and centrifuged at 300 g for 5 minutes. The DSF assay was carried out by increasing the temperature from 20 to 90° C., with a 1 second hold time every 0.2° C. and fluorescence acquisition using the FRET channel, after an initial incubation step of 10 minutes at 20° C. Control experiments in the absence of DMSO and/or compounds were routinely performed in each microplate.
Data were processed using CFX Manager Software V3.0 (Bio-Rad) and the GraphPad Prism 7. Temperature scan curves were fitted to a dose-response sigmoid function (Boltzmann equation) and the melting temperature (Tm values) were obtained from the midpoint of the transition. Normalization of the RFU was also performed to prevent distraction due to different maximum and minimum values upon compounds treatment. The RFU values from different data sets were converted to a common scale 0-1, where 0 represents the fluorescence of the native protein and 1 the fluorescence of the denatured protein. To monitor the binding properties towards each compound, DSF assays were run in the absence and presence of 100 μM compounds using 1% (v/v) DMSO as vehicle control.
To test this hypothesis, the melting temperature (Tm) of the PD-L1 was determined in thermal denaturation assays by differential scanning fluorimetry (DSF) and checked for a shift in the proteins' Tm (ΔTm) in the presence of the PD-L1 inhibitor candidates. The extent of temperature shift is proportional to the compounds' stabilizing effect and thereby used to infer inhibitors' affinity.

MDA-MB-231 cells = assay: MTT cell viability, MDA-MB-231; assay type: cell-based, human; settings: 1, 10, 100 μM, 48 hours
Description: (§1) For the MTT assays, cells were seeded in 96-multi-well plate at a concentration of 7,000 cells per well. Six hours after seeding, cells were treated with the compounds and DMSO as a negative control. Forty-eight hours after the addition of the compounds, 20 μl of MTT (Sigma-Aldrich) dissolved in 5 mg/ml of PBS were added to each well and incubated for 2 hours at 37° C. Solutions were removed, and 100 μl of DMSO were added to each well and gently mixed on a shaker. The absorbance of control and treated wells was read against a DMSO blank at 570 nm using an Epoch micro-plate reader (Biotek). Each hit compound was tested in three replicates, in three independent experiments.
(§2) Human breast cancer MDA-MB-231 and melanoma A375 cells were exposed to increasing concentrations (1, 10, and 100 μM) of selected compounds for 48 hours. Cell viability was normalized to untreated cells. Three different concentrations 100 μM (blue), 10 μM (green) and 1 μM (gray) were tested. Data are presented as mean±SD, N=3, n=3 and N=1, n=3, from three or one independent experiment(s) performed in triplicate.

A375 cells = assay: MTT cell viability, A375; assay type: cell-based, human; settings: 1, 10, 100 μM, 48 hours
Description: as §1, §2

[2] = tested on: PD-1/PD-L1 interaction on MDA-MB-231 cells; assay: Cell-based PD-1/PD-L1 inhibition (accessible PD-L1 by flow cytometry), MDA-MB-231; set-up: species or system human; settings: 10 μM, 72 hours
Description: (§3) PD-1/PD-L1 Inhibition on Human Melanoma and Breast Cancer Cell Lines:
(§4) Cells (0.1×10^6 cells) were tested for PD-1/PD-L1 inhibition by co-incubation of hit compounds, DMSO (background), BMS-202 (Selleckchem) and anti-human PD-L1 (BioxCell, Clone 29E.2A3) (positive controls) for 72 hours in 2 ml DMEM medium. Non-confluent cell cultures were scraped into single-cell suspension, washed with PBS, and counted. Cells were subsequently stained with PD-1 fluorescent proxy for 30 minutes at 4° C., washed twice and resuspended in FACS buffer. Cells were analyzed using BD LSRFortessa (BD Biosciences) and data analyzed with FlowJo software for Mac (FlowJo, LLC 2013-2016). Mean fluorescence intensity (MFI) was derived from each sample. The PD-1/PD-L1 inhibition in cells was measured by a decrease in MFI relative to background.
The selected cell lines were incubated with the selected compounds to assess compound-binding affinities, and consequently PD-1/PD-L1 inhibition. The levels of remaining accessible PD-L1 in these cells were evaluated by FACS analysis using a fluorescence PD-1 proxy. To understand compound activity, different incubation times (24, 48 and 72 hours) were evaluated on MDA-MB-231 breast cancer cell line.
(§5) The remaining accessible PD-L1 was determined by flow cytometry.

[3] = tested on: PD-1/PD-L1 interaction on A375 cells; assay: Cell-based PD-1/PD-L1 inhibition (accessible PD-L1 by flow cytometry), A375; set-up: species or system human; settings: A375 stimulated with IFN-γ; 10 μM; 72 hours
Description: as §3, §4, §5

[4] = HTRF dose-response starting from 100 μM
[5] = Table A, HTRF dose-response, NA = Not applicable (No dose-response effect)
[6] = Table B, HTRF dose-response, NA = no dose-response effect

SMILES | IC50 (PD-1/PD-L1 interaction; [4]) | IC50 (PD-1/PD-L1 interaction; [5]) | IC50 (PD-1/PD-L1 interaction; [6]) | HTF assay (100 μM) (PD-1/PD-L1 interaction) | stability of compound [1] | thermal shift / stabilization of PD-L1 (recombinant human PD-L1) | dose-response effect in HTRF (PD-1/PD-L1 interaction) | interference with the fluorescence-dye in DSF (recombinant human PD-L1) | toxicity (cell viability, MTT) (MDA-MB-231 cells) | toxicity (cell viability, MTT) (A375 cells) | impact on PD-L1 accessibility / PD-1/PD-L1 interaction [2] | impact on PD-L1 accessibility / PD-1/PD-L1 interaction [3]
N#Cc1nc(CC(=O)/C=C/c2ccccc2)c(CC(=O)/C=C/c2ccccc2)nc1C#N [Compound 18] | 190 nM | 190 nM | 190 nM | + | stability issues |  |  |  |  |  |  | 
CN1CCN(S(=O)(=O)c2ccc(-c3ccc4c(Nc5ccc6nn[nH]c6c5)ccnc4c3)cc2)CC1 [Compound 29] | 4000 nM | 4000 nM | 4000 nM | + | stability issues |  |  |  |  |  |  | 
O=C(NC1CC1)c1ccc(N2CCC(Cc3ccccc3)CC2)nc1 [Compound 38] |  |  |  | + |  |  | no dose-response was observed |  |  |  |  | 
CN(C)CCNC(=O)N1CCCN(c2ncnc3cc(-c4ccccc4)sc23)CC1 [Compound 35] |  |  |  | + |  |  | no dose-response was observed |  |  |  |  | 
CC1CCCCN1C(=O)NCCc1coc(-c2ccc(F)cc2)n1 (stereo not drawn) [Compound 32] |  |  |  | + |  |  | no dose-response was observed |  |  |  |  | 
COc1nc(OCc2cccc(-c3ccccc3)c2C)ccc1CNCCNC(C)=O [BMS202, reference compound] |  |  |  |  |  |  |  |  | higher toxicity at the highest concentration | higher toxicity at the highest concentration | did not exhibit a significant impact | did not exhibit a significant impact
Cc1nc(C)c(C(=O)NNC(=O)Cc2ccccc2)cc1C(=O)NNC(=O)Cc1ccccc1 [Compound 84] | 1090 nM | 1090 nM | 1090 nM | + |  | stabilization of PD-L1 |  |  |  |  |  | 
CC1(C)OCC(C2OC3OC(C)(C)OC3C2NNC(=O)c2cc3cc(OCc4ccccc4)ccc3[nH]2)O1 (stereo not drawn) [Compound 71] | 380 nM | 380 nM | 380 nM | + |  |  |  | revealed to interfere |  |  |  | 
CCN(CC)CCNc1nc(NCCN(CC)CC)c2nc(-c3ccccc3)c(-c3ccccc3)nc2n1 [Compound 1] | 186 nM | 186 nM | 186 nM | + |  |  |  | revealed to interfere | toxicity higher or similar to that obtained for BMS202 | toxicity higher or similar to that obtained for BMS202 |  | 
Cc1cc(SCC(=O)c2ccc3c(ccc4ccccc43)c2)cc(C)[o+]1.[Br-] [Compound 47] | 149 nM | 149 nM | 149 nM | + |  | stabilization of PD-L1 |  |  |  |  |  | 

Further lines, with some results ahead:

IC50 (PD-1/PD-L1 interaction; [4]) | IC50 (PD-1/PD-L1 interaction; [5]) | IC50 (PD-1/PD-L1 interaction; [6]) | HTF assay (100 μM) (PD-1/PD-L1 interaction) | stability of compound [1] | thermal shift / stabilization of PD-L1 (recombinant human PD-L1) | dose-response effect in HTRF (PD-1/PD-L1 interaction) | interference with the fluorescence-dye in DSF (recombinant human PD-L1) | SMILES | toxicity (cell viability, MTT) (MDA-MB-231 cells) | toxicity (cell viability, MTT) (A375 cells) | impact on PD-L1 accessibility / PD-1/PD-L1 interaction [2] | impact on PD-L1 accessibility / PD-1/PD-L1 interaction [3]
1550 nM | 1550 nM | 1550 nM | + |  | stabilization of PD-L1 |  |  | Cc1cc(C)nc(NS(=O)(=O)c2ccc(NC(=O)c3cccnc3Nc3cccc(Cl)c3)cc2)n1 [Compound 75] | toxicity higher or similar to that obtained for BMS202 | toxicity higher or similar to that obtained for BMS202 |  | 
596 nM | 596 nM | 596 nM | + |  |  |  |  | COc1ccc(-c2nc(N)nc(-c3cc(C)ccc3O)c2Cl)cc1 [Compound 45] |  |  |  | 
149 nM | 149 nM | 149 nM | + |  |  |  | revealed to interfere | O=C(c1ccc(-c2ccccc2)cc1)c1nc(-c2ccc(-c3ccccc3)cc2)c[nH]1 [Compound 73] | toxicity higher or similar to that obtained for BMS202 | toxicity higher or similar to that obtained for BMS202 |  | 
57 nM | 57 nM | 57 nM | + |  | stabilization of PD-L1 |  |  | CCCCCCCCSc1nc2ccc(/N=C\c3ccccc3O)cc2s1 [Compound 42] |  |  |  | 
 |  |  | + |  |  | no dose-response was observed |  | CC(C)(C)OC(=O)N1CCN(c2cc(-c3ccc(Oc4ccccc4)cc3)n[nH]2)CC1 [Compound 30] |  |  |  | 
2440 nM | 2440 nM | 2440 nM | + |  | stabilization of PD-L1 |  |  | COc1ccc(-c2nc(N)nc(-c3cc(C)ccc3OC)c2Cl)cc1 [Compound 5] |  |  |  | 
